Data published in patent US20080064714A1, “Novel Pyrrolodihydroisoquinolines” (NYCOMED GMBH, priority 2005, published 2008).

Assays:
[1] = tested on: NCl-H460 non-small cell lung cancer cells; test: Alamar Blue cell viability assay (anti-proliferative/cytotoxic activity); assay type: cell-based; conditions: Homo sapiens, NCI-H460 cells, 72 hours incubation, read-out: −log IC50 NCI-H460 (mol/l), anti-proliferative/cytotoxic activity (converted)
Description: The anti-proliferative/cytotoxic activity of the compounds described herein, can be tested on NCl-H460 non-small cell lung cancer cells using the Alamar Blue cell viability assay (described in O'Brien et al. Eur J Biochem 267, 5421-5426, 2000). The compounds are dissolved as 20 mM solutions in dimethylsulfoxide (DMSO) and subsequently diluted in semi-logarithmic steps. DMSO dilutions are further diluted 1:10 into Dulbecco's modified Eagle's medium (DMEM) containing 10% fetal calf serum to a final concentration ten times as much as the final concentration in the test. NCl-H460 cells are seeded into 96 well flat bottom plates at a density of 4000 cells per well in a volume of 180 μl per well. 24 hours after seeding the 20 μl each of the compound dilutions in DMEM medium are added into each well of the 96 Well plate. Each compound dilution is tested as quadruplicates. Wells containing untreated control cells are filled with […] DMEM medium containing 1% DMSO. The cells are then incubated with the substances for 72 hours at 37° C. in a humified atmosphere containing 5% carbon dioxide. To determine the viability of the cells, 20 μl of an Alamar Blue solution (Biosource) are added and the fluorescence is measured at an extinction of 544 nm and an emission of 590 nm. For the calculation of cell viability the emission value from untreated cells is set to 100% viability and the emission rates of treated cells are set in relation to the values of untreated cells. Viabilities are expressed as % values.
The corresponding IC50 values of the compounds for anti-proliferative/cytotoxic activity are determined from the concentration-effect curves.
Representative IC50 values for anti-proliferation/cytotoxicity determined in the aforementioned assay follow from the following table A, in which the numbers of the compound correspond to the numbers of the examples.

[2] = tested on: NCl-H460 non-small cell lung cancer cells; test: modified Alamar Blue cell viability assay for compound combinations; assay type: cell-based; conditions: in combination with the compounds according to this invention; concentration-effect curves, single compound vs. combination
Description: In order to assess favorable compound combinations in vitro which might be used for therapeutic applications, a modified Alamar Blue cell viability assay (described in O'Brien et al. Eur J Biochem 267, 5421-5426, 2000) is applied. For that purpose, anti-proliferative/cytotoxic effects of the compounds described herein in combination with other pharmacologically active compounds are assayed on NCl-H460 non-small cell lung cancer cells. The respective compounds are dissolved as 20 mM solutions in dimethylsulfoxide (DMSO) and subsequenty diluted in semi-logarithmic steps. […] To determine the viability of the cells, 20 μl of an Alamar Blue solution (Biosource) are added and the fluorescence is measured at an extinction of 544 nm and an emission of 590 nm. For the calculation of cell viability the fluorescence emission value from untreated cells is set to 100% viability and the emission values of treated cells are set in relation to the values of untreated cells. Viabilities are expressed as % values. […]
Synergistic or antagonistic effects of compound combinations can be determined from the concentration-effect curves by comparison of curve shapes and IC50 values for single compound treatment vs. the compound combination.

Row | melting point [°C] | SMILES | IC50 [1] [nM] | synergistic effects with the compounds according to this invention [2]
1 | – | COc1cc2c(cc1OC)-c1c(C(=O)C3CC3)c(-c3cc(C)c(O)c(C)c3)c(C)n1CC2 [Example 6, 1-Cyclopropyl-1-[2-(4-hydroxy-3,5-dimethyl-phenyl)-8,9-dimethoxy-3-methyl-5,6-dihydro-pyrrolo[2,1-a]isoquinolin-1-yl]-methanone] | 158 to 1580 | –
2 | 129 to 132 | CCC(=O)c1c(-c2ccc(OC)c(OC)c2F)c(C)n2c1-c1cc(OC)c(OC)cc1CC2 [Example 2, 1-[2-(2-Fluoro-3,4-dimethoxy-phenyl)-8,9-dimethoxy-3-methyl-5,6-dihydro-pyrrolo[2,1-a]isoquinolin-1-yl]-propan-1-one] | – | –
3 | 209 to 211 | CCC(=O)c1c(-c2ccc(-c3ccccc3)cc2)c(C)n2c1-c1cc(OC)c(OC)cc1CC2 [Example 5, 1-(2-Biphenyl-4-yl-8,9-dimethoxy-3-methyl-5,6-dihydro-pyrrolo[2,1-a]isoquinolin-1-yl)-propan-1-one] | 158 to 1580 | –
4 | – | Nc1ncnc2c1nc(Sc1ccc(Cl)cc1)n2[C@@H]1O[C@@H]2COP(O)(=S)O[C@H]2[C@H]1O (stereo partly shown) [RP-8-CPT-cAMPs] | – | highly synergistic
5 | – | CCC(=O)c1c(-c2cc(C)c(O)c(C)c2)c(C)n2c1-c1cc(OC)c(OC)cc1CC2 [Example 1, 1-[2-(4-Hydroxy-3,5-dimethyl-phenyl)-8,9-dimethoxy-3-methyl-5,6-dihydro-pyrrolo[2,1-a]isoquinolin-1-yl]-propan-1-one] | 158 to 1580 | –
6 | 238 to 240 | CCC(=O)c1c(-c2c[nH]c3ccccc23)c(C)n2c1-c1cc(OC)c(OC)cc1CC2 [Example 4, 1-[2-(1H-Indol-3-yl)-8,9-dimethoxy-3-methyl-5,6-dihydro-pyrrolo[2,1-a]isoquinolin-1-yl]-propan-1-one] | 158 to 1580 | –
7 | 181 to 183 | CCC(=O)c1c(-c2csc3ccccc23)c(C)n2c1-c1cc(OC)c(OC)cc1CC2 [Example 3, 1-(2-Benzo[b]thiophen-3-yl-8,9-dimethoxy-3-methyl-5,6-dihydro-pyrrolo[2,1-a]isoquinolin-1-yl)-propan-1-one] | 158 to 1580 | –
